Counter-ions that a name gives are not always drawn. Like-named read-outs stand apart in the source and are kept apart here. One block for each compound: values may come before it.
Legend:
Mia-Pa-Ca-2 = experiment: CellTiterGlo cell viability assay, Mia-Pa-Ca-2; format: cell-based; details: Homo sapiens, MIA PaCa-2, Mia-Pa-Ca-2, 72 h; for EC50: absolute EC50, read-out: Ab EC50; for inhibition at 198 µM: percentage inhibition at the highest concentration tested, read-out: Top Inhibit
Experimental: A subset of compounds of the invention were assayed for their cytotoxic activity in an array of different solid tumours and haematological malignancies using the following assay.
In vitro viability assay were performed to assess the effects of compounds on cell viability in selected cell lines over 72 h using the CellTiterGlo (CTG, Promega-G7573) assay. The tests were performed in duplicates with treatment of compounds at 9 points, 3.16 folds titration in 96 well plates over ˜72 h. The compound starting concentrations were 198 μM. Cell viability assay using CellTiterGlo in 96-well plate were performed. Compound treatment 72 h, standard growth conditions, duplicates. Compounds were dissolved to 40 mM with thawed […]. Compounds were serially diluted at 3.16 fold in thawed DMSO, and warmed to 37° C. before being dissolved in media (2 μL+200 μL). After compounds were dissolved in media, media containing compounds were warmed to 37° C. in incubator and then compounds in media were added to cell plates (50 μL+50 μL) in duplicates. The compounds' final concentrations were from 198 μM to 19.8 nM. All compound solubilities were checked and recorded again, then the plates were transferred to CO2 tissue culture incubator immediately and incubated for 3 days. DMSO final concentration is 0.5%. The parent nucleoside in each case was tested as a comparator, as was an exemplary ProTide. The drugs of the ProTide class that were tested were as follows:
The following cell lines were tested and are referred to in the Table 1 below:
In Tables 2, 3 and 4, ‘Ab EC50’ refers to the absolute EC50 and ‘Top inhibit’ refers to the percentage inhibition achieved at the highest concentration tested.

HT29 = experiment: CellTiterGlo cell viability assay, HT29; format: cell-based; details: HT29, 72 h; for EC50: read-out: Ab EC50; for inhibition at 198 µM: read-out: Top Inhibit
In short: (§1)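 Cells were treated in duplicate for 72 h under standard growth conditions with a 9-point, 3.16-fold compound series at final concentrations of 198 μM to 19.8 nM in 0.5% DMSO. Viability was measured by CellTiterGlo luminescence, and absolute EC50 and percent inhibition at the top concentration were derived.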

MOLT-4 = experiment: CellTiterGlo cell viability assay, MOLT-4; format: cell-based
In short: as §1

K562 = experiment: CellTiterGlo cell viability assay, K562; format: cell-based; details: for EC50: read-out: Ab EC50
In short: as §1

HL-60 = experiment: CellTiterGlo cell viability assay, HL-60; format: cell-based; details: HL-60, 72 h; for inhibition at 198 µM: read-out: Top Inh
In short: as §1

RL = experiment: CellTiterGlo cell viability assay, RL; format: cell-based; details: 72 h
In short: as §1

HepG2 = experiment: CellTiterGlo cell viability assay, HepG2; format: cell-based
In short: as §1

OVCAR 3 = experiment: CellTiterGlo cell viability assay, OVCAR 3; format: cell-based; details: for EC50: read-out: Ab EC50; for inhibition at 198 µM: read-out: Top Inhibit
In short: as §1

MCF-7 = experiment: CellTiterGlo cell viability assay, MCF-7; format: cell-based; details: MCF-7, 72 h; for EC50 / inhibition at 198 µM: Homo sapiens; for EC50: read-out: Ab EC50; for inhibition at 198 µM: read-out: Top Inhibit
In short: as §1

CCRF-CEM = experiment: CellTiterGlo cell viability assay, CCRF-CEM; format: cell-based; details: 72 h; for EC50: read-out: Ab EC50; for inhibition at 198 µM: read-out: Top Inh
In short: as §1

RPMI-8226 = experiment: CellTiterGlo cell viability assay, RPMI-8226; format: cell-based, Human; details: RPMI-8226, 72 h
In short: as §1

in vitro = details: human, hepatocytes, pH 7.3
KG-1 = experiment: CellTiterGlo cell viability assay, KG-1; format: cell-based; details: KG-1, 72 h
In short: as §1

[1] = Homo sapiens, HT-29, 72 h, absolute EC50, numeric values
[2] = Homo sapiens, HT-29, 72 h, percentage inhibition at the highest concentration tested
[3] = Homo sapiens, MOLT-4, 72 h, percentage inhibition at the highest concentration tested, read-out: Top Inh
[4] = Homo sapiens; MOLT-4, 72 h, absolute EC50, numeric values; read-out: Ab EC50
[5] = Homo sapiens, K562, 72 h, percentage inhibition at the highest concentration tested, read-out: Top Inh
[6] = Homo sapiens, absolute EC50, numeric values, read-out: Ab EC50
[7] = Homo sapiens, percentage inhibition at the highest concentration tested
[8] = Homo sapiens, percentage inhibition at the highest concentration tested, read-out: Top Inh
[9] = Homo sapiens, Table 3 classes, read-out: Ab EC50
[10] = percentage inhibition at the highest concentration tested
[11] = Table 4 classes, read-out: Ab EC50

SMILES: C[C@H](NP(=O)(Oc1ccccc1)OP(=O)(O)OC[C@@H]1C[C@H](O)[C@H](n2cnc3c(N)ncnc32)O1)C(=O)OCc1ccccc1 (stereo partly drawn) [Example 6, 3′-Deoxyadenosine-5′-O-[phenyl(benzoxy-L-alaninyl)] Diphosphate Triethylammonium Salt]
EC50 (Mia-Pa-Ca-2): 40.9 µM
inhibition at 198 µM (Mia-Pa-Ca-2): 95.7%
EC50 (HT29; [1]): 24300 nM
inhibition at 198 µM (HT29; [2]): 82%
inhibition at 198 µM (MOLT-4; [3]): 95%
EC50 (MOLT-4; [4]): 14200 nM
inhibition at 198 µM (K562; [5]): 81%
EC50 (K562; Homo sapiens, K562, 72 h, absolute EC50, numeric values): 52.3 µM
EC50 (HL-60; [6]): 62.5 µM
inhibition at 198 µM (HL-60; [7]): 80%
EC50 (RL; [6]): 88.8 µM
inhibition at 198 µM (RL; [8]): 72%

EC50 (Mia-Pa-Ca-2): 0.03 µM
EC50 (HT29; Homo sapiens, HT-29, absolute EC50, numeric values): 220 nM
EC50 (HepG2; Homo sapiens; HepG2, 72 h, absolute EC50, numeric values; read-out: Ab EC50): 28 µM
EC50 (OVCAR 3; Homo sapiens, OVCAR 3, 72 h, absolute EC50, numeric values): > 198 µM
EC50 (MCF-7; MCF7, absolute EC50, numeric values): 11 nM
EC50 (CCRF-CEM; Homo sapiens, absolute EC50, numeric values): 20 nM
EC50 (MOLT-4; [4]): 4 nM
SMILES: Nc1ccn([C@@H]2O[C@H](CO)[C@@H](O)C2(F)F)c(=O)n1 [Gemcitabine, reference compound]
inhibition at 198 µM (Mia-Pa-Ca-2): 79%
inhibition at 198 µM (HT29; Homo sapiens, HT-29, percentage inhibition at the highest concentration tested): 65%
inhibition at 198 µM (HepG2; Homo sapiens; HepG2, 72 h, percentage inhibition at the highest concentration tested; read-out: Top Inhibit): 54%
inhibition at 198 µM (OVCAR 3; Homo sapiens, OVCAR 3, 72 h, percentage inhibition at the highest concentration tested): 44%
inhibition at 198 µM (MCF-7; MCF7, percentage inhibition at the highest concentration tested): 53%
inhibition at 198 µM (CCRF-CEM; [7]): 101%
inhibition at 198 µM (MOLT-4; Homo sapiens; MOLT-4, 72 h, percentage inhibition at the highest concentration tested; read-out: Top Inh): 88%

SMILES: Nc1nc(Cl)nc2c1ncn2[C@@H]1O[C@H](COP(=O)(O)OP(=O)(NCC(=O)OCc2ccccc2)Oc2ccccc2)C(O)[C@H]1F (stereo partly drawn) [Example 3, 2-Chloro-9-(2′-Deoxy-2′-fluoro-β-D-arabinofuranosyl)adenine-5′-O-[phenyl(benzoxy-L-glycinyl)] Diphosphate Triethylammonium Salt]
EC50 (HT29; Homo sapiens, HT-29, 72 h, Table 3 classes): 200 to 2000 nM
inhibition at 198 µM (HT29; [2]): 61%
EC50 (HepG2; Homo sapiens, HepG2, 72 h, Table 3 classes, read-out: Ab EC50): 2 to 5 µM
inhibition at 198 µM (HepG2; Homo sapiens, HepG2, 72 h, percentage inhibition at the highest concentration tested, read-out: Top Inhibit): 53%
inhibition at 198 µM (OVCAR 3; Homo sapiens, OVCAR-3, 72 h, percentage inhibition at the highest concentration tested): 49%
EC50 (OVCAR 3; Homo sapiens, OVCAR 3, 72 h, Table 3 classes): > 10 µM
EC50 (MCF-7; MCF7, 72 h, Table 3 classes): 2000 to 5000 nM
inhibition at 198 µM (MCF-7; MCF7, 72 h, percentage inhibition at the highest concentration tested): 59%
EC50 (CCRF-CEM; Homo sapiens, Table 3 classes): < 200 nM
inhibition at 198 µM (CCRF-CEM; [7]): 99.6%
inhibition at 198 µM (MOLT-4; [3]): 96%
EC50 (MOLT-4; Homo sapiens; MOLT-4, 72 h, Table 3 classes; read-out: Ab EC50): < 200 nM
inhibition at 198 µM (K562; [5]): 24%
EC50 (K562; Homo sapiens, K562, 72 h, Table 3 classes): > 10 µM
EC50 (HL-60; [9]): < 0.2 µM
inhibition at 198 µM (HL-60; [7]): 97%
EC50 (RL; [9]): 0.2 to 2 µM
inhibition at 198 µM (RL; [8]): 63%
EC50 (RPMI-8226; [9]): 5 to 10 µM
inhibition at 198 µM (RPMI-8226; [8]): 91.6%
half-life (in vitro): 20 to 100 min

SMILES: C[C@H](NP(=O)(OC[C@@H]1C[C@H](O)[C@H](n2cnc3c(N)ncnc32)O1)Oc1ccccc1)C(=O)OCc1ccccc1 (stereo partly drawn) [E, reference compound]
EC50 (Mia-Pa-Ca-2): 7.92 µM
inhibition at 198 µM (Mia-Pa-Ca-2): 98%
EC50 (HT29; [1]): 10800 nM
inhibition at 198 µM (HT29; [2]): 97%
EC50 (MOLT-4; Homo sapiens, MOLT-4, 72 h, absolute EC50, numeric values, read-out: Ab EC50): 5230 nM
inhibition at 198 µM (MOLT-4; [3]): 96%
EC50 (K562; Homo sapiens, K562, 72 h): 11 µM
inhibition at 198 µM (K562; Homo sapiens, K562, 72 h, read-out: Top Inh, K562, 72 h, percentage inhibition at the highest concentration tested): 87%
EC50 (HL-60; Homo sapiens, read-out: Ab EC50, HL-60, 72 h, absolute EC50, numeric values): 31.1 µM
inhibition at 198 µM (HL-60; Homo sapiens): 97%
EC50 (RL; Homo sapiens, read-out: Ab EC50, RL, 72 h, absolute EC50, numeric values): 18.3 µM
inhibition at 198 µM (RL; Homo sapiens, read-out: Top Inh, RL, 72 h, percentage inhibition at the highest concentration tested): 90.5%
EC50 (RPMI-8226; Homo sapiens, read-out: Ab EC50, RPMI-8226, 72 h, absolute EC50, numeric values): 19.8 µM
inhibition at 198 µM (RPMI-8226; Homo sapiens, read-out: Top Inh, RPMI-8226, 72 h, percentage inhibition at the highest concentration tested): 97.8%

SMILES: CCN(CC)CC.C[C@H](NP(=O)(Oc1cccc2ccccc12)OP(O)(=S)OC[C@H]1O[C@@H](n2cnc3c(N)nc(Cl)nc32)[C@@H](F)[C@@H]1O)C(=O)OCc1ccccc1 (stereo partly drawn) [Example 26, 2-Chloro-9-(2′-Deoxy-2′-fluoro-β-D-arabinofuranosyl)adenine-5′-O-[l-naphthyl(benzoxy-L-alaninyl)] phosphorothiol-phosphate Triethylammonium Salt]
EC50 (HT29; Table 4 classes): 200 to 1000 nM
Top Inhibit (HT29; [10]): 64%
Top Inhibit (HepG2; HepG2, 72 h, percentage inhibition at the highest concentration tested): 49%
EC50 (OVCAR 3; OVCAR 3, 72 h, Table 4 classes): > 10 µM
Top Inhibit (OVCAR 3; OVCAR 3, 72 h, percentage inhibition at the highest concentration tested): 62%
Top Inhibit (MCF-7; [10]): 44%
EC50 (CCRF-CEM; Table 4 classes): < 200 nM
Top Inh (CCRF-CEM; [10]): 99%
EC50 (MOLT-4; MOLT-4, 72 h, Table 4 classes; read-out: Ab EC50): < 200 nM
Top Inh (MOLT-4; MOLT-4, 72 h, percentage inhibition at the highest concentration tested): 84%
EC50 (K562; K 562, 72 h, Table 4 classes): > 10 µM
Top Inh (K562; K562, 72 h, percentage inhibition at the highest concentration tested): 69%
EC50 (HL-60; [11]): < 0.2 µM
Top Inh (HL-60; [10]): 95%
EC50 (RL; [11]): > 10 µM
Top Inh (RL; [10]): 56%
EC50 (RPMI-8226; [11]): 1 to 5 µM
Top Inh (RPMI-8226; [10]): 93%
EC50 (KG-1; [11]): < 200 nM
Top Inhibit (KG-1; [10]): 91%

From patent US11560400B2, “Salts of diphosphate phosphoramidate of nucleosides as anticancer compounds” (NuCana plc, priority 2017, dated 2023)
